Results on 10 molecules are retold here after patent publication US20110257145A1, “METHOD OF TREATING NEUROLOGICAL DISEASES” (THE BOARD OF TRUSTEES OF THE UNIVERSITY OF ILLINOIS, priority 2008, published 2011).

Where two headings read alike, the source gives them in different places.

Assay [1] concerns HEK293 cells stably transfected with human APP. Description: sAPPα ELISA. Format: cell-based. The method, then: (§1) sAPPα and Aβ40 detection: […] cell lines stably transfected with human APP were maintained in Dulbecco's modified Eagle's medium (DMEM) with 10% fetal bovine serum (FBS). Cells were seeded onto 6-well plates, and incubated at 37° C. overnight. Compounds 9-14 were first dissolved in dimethyl sulfoxide (DMSO) as a 10 mM stock and diluted into the respective concentrations with fresh DMEM with 10% FBS. After exposure overnight, the cell medium was replaced by fresh medium containing the PKC agonist. After incubation for 48 hours, the medium was collected, and both the soluble APP (sAPPα) and Aβ40 levels in the medium were determined by using the sAPPα and Aβ40 ELISA kits obtained from Biosource, Camarillo, Calif. according to the manufacturer's instructions.
In FIG. 1, the data are presented as percent of control±SEM.

The test system is the same in assay [2]. Description: Aβ40 ELISA. It counts as cell-based. The settings on record: 24 h. How it is done:
as §1
It is theorized, but not relied upon, that if APP synthesis is held relatively constant, the production of Aβ decreases if more of the APP is processed through the α-secretase pathway. To confirm that treatment with a present benzolactam enhances the α-secretase APP-processing pathway, compounds 9-14 were examined to determine whether the increased levels of sAPPα corresponds to a decrease in the production of Aβ40. The cells were treated for 24 h at concentrations ranging from 0.001 to 10 μM, and Aβ40 levels were measured by Aβ40 ELISA. […] In FIG. 2, the data are presented as in FIG. 1, with “*” and “**” having the same meaning. […] In general, there was good agreement between an ability of a present benzolactam to increase sAPPα and its ability to decrease Aβ40.
For orientation: In an ELISA, binding on a coated surface is turned into a signal by an enzyme label.

The subject of assay [3] is acetylated histone H4 in primary cortical neurons. Description: Western blot of histone H4 acetylation. It counts as cell-based, rat. The method, then: (§2) Primary neurons and cell culture: Cell cultures were obtained from the cerebral cortex of fetal Sprague-Dawley rats (embryonic day 17), as described previously. All experiments were initiated 24 hours after plating. Under these conditions, the cells are not susceptible to glutamate-mediated excitotoxicity.
Histone precipitation and Western blot analysis: Treated neurons (about 1×10^6) were incubated in hypotonic lysis buffer (1 mL) containing Tris-HCl (pH 8.0, 10 mM), KCl (1 mM), MgCl2 (1.5 mm), DTT (1 mM), aprotinin (1 mM), pepstatin (1 mM), and PMSF (0.4 mM) for 30 minutes, rotating at 4° C. Nuclei were pelleted by centrifugation for 10 minutes at 10,000 rpm (9000 g), resuspended in H2SO4 (0.4N, 200 μL), and rotated for 12 hours at 4° C. Following centrifugation at 13,000 rpm (16,000 g value) for 10 minutes, the supernatant was transferred to anew tube, and the histone proteins were precipitated by adding 100% trichloroacetic acid (TCA: 66 μL) dropwise followed by 30 minutes incubation on ice. Histone proteins were pelleted by centrifugation at 13,000 rpm (16,000 g) for 10 minutes, washed twice with ice-cold acetone, dried at room temperature for 20-40 minutes, and resuspended in H2O ([…]). Total histone proteins (20 μL) were boiled in Laemmli buffer and electrophoresed under reducing conditions on 15% polyacrylamide gel. Histone proteins were transferred to a nitrocellulose membrane (Bio-Rad, Hercules, Calif.). Nonspecific binding was inhibited by incubation in Tris-buffered saline with Tween 20 (TBST: 50 mM Tris-HCl pH 8.0, 0.9% NaCl, and 0.1% Tween 20) containing 5% nonfat dried milk for at least 1.5 hours. Primary antibodies against acetylated histone H4 or total histone H4 (Upstate) were diluted 1:1000 or 1:4000, respectively, in TBST containing 5% milk and incubated with the membrane for 3 hours at room temperature, followed by incubation with anti-rabbit horseradish peroxidase-conjugated secondary antibodies for 2 h at room temperature. Acetyl histone H4 and total histone H4 immunoreactivity was detected according to the enhanced chemiluminescent protocol (Amersham Biosciences, Fairfield, Conn.).
To illustrate the HDAC-inhibitory activity of the present benzolactams, an ability of the compounds to alter histone acetylation levels was examined. FIG. 3 contains Western blot analyses showing the effect of percent benzolactam compounds at 10 μM (FIG. 3A) and 20 μM (FIG. 3B) in the acetylation levels of histone H4. Cultures of primary cortical neurons were treated with the various benzolactam compounds (at 10 μM) for a period of 8 hours, and Western blot analysis then was performed using acetyl-histone H4-specific antibodies (FIG. 3A).
(A western blot detects proteins with antibodies after separation by electrophoresis.)

The next assay has as its target mouse PKCα (Mus musculus, UniProt P20444). Description: PKC binding affinity. The method, then: ClogP and topological polar surface area (tPSA) values were calculated (Table 1). ClogP values for the tested compounds ranged from 0.92 to 4.67. The tPSA values were in the range of 61.80-90.90. […] The binding affinities of the compounds for mouse PKCα were determined as described previously. The Ki values for each of the compounds 2, 3, 6, 7, and 9-14, and known […] bryostatin 1 and SAHA are listed in Table 1.

For a further assay, the system named is primary cortical neurons. The experiment in a line: HCA oxidative stress neuroprotection, cortical neurons (MTT). The following applies: up to 20 μM, presence of HCA, 48 hours. Format: cell-based, rat. The method, then:
as §2
Oxidative toxicity and neuron viability assays: For cytotoxicity studies, cells were rinsed with warm phosphate-buffered saline (PBS), then placed in minimum essential medium (Invitrogen, Carlsbad, Calif.) containing glucose (5.5 g L^−1), 10% fetal calf serum, L-glutamine (2 mM), and cysteine (100 μM). Oxidative stress was induced by the addition of the glutamate analogue HCA ([…]) to the media. HCA was diluted from 100-fold concentrated solutions that were adjusted to pH 7.5. In combination with HCA, TSA, SAHA, or the novel PKC-HDAC compounds were added at various concentrations. Viability was assessed after 48 hours by calceinacetoxymethyl ester (AM)/ethidium homodimer-1 staining (live/dead assay; Molecular Probes, Eugene, Oreg., USA) under fluorescence microscopy and the MTT assay method. Each bar represents the mean ±SEM of four replicates.
In this model of neurodegeneration, oxidative stress is induced by the presence of the glutamate analogue homocysteate (HCA) at a concentration of 5 mM, which depletes the cellular antioxidant glutathione through competitive inhibition of cysteine uptake at the level of the plasma membrane cysteine/glutamate antiporter system xc-. […]
In one embodiment, the present invention relates to a method of treating an individual suffering from a disease or condition wherein activation of PKC and inhibition of HDAC provides a benefit comprising administering a therapeutically effective amount of a compound of structural formula (I) to an individual in need thereof. […] Neuron survival was quantified by MTT assay, a colorimetric assay in which the amount of yellow MTT is reduced to purple formazan by active mitochondrial reductase enzymes in viable cells.

Where [4] appears, read: mouse PKCα, read-out: K1[nm] ± SEM.
Setting [5] is: concentration not given in the sentence (FIG. 3: 10 and 20 μM).

With `CC(=O)SCCCOc1ccc2c(c1)N(C)C(C(C)C)C(=O)NC(CO)C2` (stereo not drawn) [Compound 9, Thioacetic acid S-[3-(5-hydroxymethyl-2-isopropyl-1-methyl-3-oxo-1,2,3,4,5,6-hexahydrobenzole[e][1,4]diazocin-9-yloxy)propyl]ester], in assay [1] (10 μm), the sAPPα levels entry is “increase in sAPPα levels”. The Aβ40 levels result in assay [2] (10 μM) is “significant decrease in Aβ40 levels”. In addition, the “histone H4 acetylation” value in assay [3] (10 μM, 8 hours) was “less effective at inducing histone H4 acetylation”; in assay [3] (20 μM), “modest acetylation was observed”.

`CC(=O)SCCCCCCOc1ccc2c(c1)N(C)C(C(C)C)C(=O)NC(CO)C2` (stereo not drawn) [Compound 12, Thioacetic acid S-[6-(5-hydroxymethyl-2-isopropyl-1-methyl-3-oxo-1,2,3,4,5,6-hexahydrobenzo[e][1,4]diazocin-9-yloxy)hexyl] ester]: the Ki at mouse PKCα (setting [4]) amounted to 8.7 ± 0.7 nM. Besides, the sAPPα levels entry in assay [1] (1-10 μm) is “increase in sAPPα levels”. In addition, the Aβ40 levels result in assay [2] (10 μM) is “significant decrease in Aβ40 levels”.

On to `CC(C)[C@H]1C(=O)N[C@H](CO)Cc2ccc(OCCNC(=O)CCCCC3CCSS3)cc2N1C` (stereo partly drawn) [Compound 6, 1N-{2-[5-Hydroxymethyl-2-isopropyl-1-methyl-3-oxo-(2S,5S)-1,2,3,4,5,6-hexahydrobenzo[e][1,4]diazocin-9-yloxy]ethyl}-5-(1,2-dithiolan-3-yl)pentanamide], for which the Ki on mouse PKCα (setting [4]) was 148 ± 18 nM. Besides, in assay [3] (setting [5]), the “histone H4 acetylation” value is “failed to induce histone H4 acetylation”. For the same molecule, the neuroprotection entry in the assay with primary cortical neurons is “no neuroprotection”.

On to `C=CCCCCCOc1ccc2c(c1)N(C)C(C(C)C)C(=O)NC(CO)C2` (stereo not drawn) [Compound 3, 9-Hept-6-enyloxy-5-hydroxymethyl-2-isopropyl-1-methyl-1,4,5,6-tetrahydro-2H-benzo[e][1,4]diazocin-3-one], for which the “histone H4 acetylation” value in assay [3] (20 μM) is “did not increase histone H4 acetylation”. In addition, in the assay on primary cortical neurons, the neuroprotection result is listed as “no neuroprotection”.

Regarding `CC(C)[C@H]1C(=O)N[C@H](CO)Cc2ccc(OC(=O)CCCCC3CCSS3)cc2N1C` (stereo partly drawn) [Compound 7, (2S,5S)-1,2,3,4,5,6-Hexahydro-5-(hydroxymethyl)-2-isopropyl-1-methyl-3-oxobenzo[e][1,4]diazocin-9-yl-5-(1,2-dithiolan-3-yl)pentanoate], on mouse PKCα (setting [4]), the Ki was determined as 5.7 ± 1 nM. The “histone H4 acetylation” value in assay [3] (setting [5]) is “failed to induce histone H4 acetylation”. Further, the neuroprotection entry in the assay on primary cortical neurons is “no neuroprotection”.

For `CC(=O)SCCCCCCCCOc1ccc2c(c1)N(C)C(C(C)C)C(=O)NC(CO)C2` (stereo not drawn) [Compound 14, Thioacetic acid S-[8-(5-hydroxymethyl-2-isopropyl-1-methyl-3-oxo-1,2,3,4,5,6-hexahydrobenzole[e][1,4]diazocin-9-yloxy)octyl] ester], the sAPPα levels entry in assay [1] (1-10 μm) is recorded as “increase in sAPPα levels”. In addition, the Aβ40 levels entry in assay [2] (1-10 μM) is given as “significant decrease in Aβ40 levels”.

`CC(C)[C@H]1C(=O)N[C@H](CO)Cc2ccc(O)cc2N1C` [Compound 2, 9-Hydroxy-5-hydroxymethyl-2-isopropyl-1-methyl-(2S,5S)-1,4,5,6-tetrahydro-2H-benzo[e][1,4]diazocin-3-one] showed a Ki at mouse PKCα of 4840 ± 320 nM.

In the case of `CC(=O)SCCCCOc1ccc2c(c1)N(C)C(C(C)C)C(=O)NC(CO)C2` (stereo not drawn) [Compound 10, Thioacetic acid S-[4-(5-hydroxymethyl-2-isopropyl-1-methyl-3-oxo-1,2,3,4,5,6-hexahydrobenzo[e][1,4]diazocin-9-yloxy)butyl] ester], the sAPPα levels result in assay [1] (1 nM) is “statistically significant elevation in sAPPα”. The Aβ40 levels result in assay [2] (10 μM) is listed as “significant decrease in Aβ40 levels”. For the same molecule, the “histone H4 acetylation” value in assay [3] (10 μM, 8 hours) is on record as “less effective at inducing histone H4 acetylation”; in assay [3] (20 μM), “modest acetylation was observed”.

With `CC(=O)SCCCCCOc1ccc2c(c1)N(C)C(C(C)C)C(=O)NC(CO)C2` (stereo not drawn) [Compound 11, Thioacetic acid S-[5-(5-hydroxymethyl-2-isopropyl-1-methyl-3-oxo-1,2,3,4,5,6-hexahydrobenzo[e][1,4]diazocin-9-yloxy)pentyl] ester], in assay [1] (10 μm), the sAPPα levels entry was “increase in sAPPα levels”. In addition, in assay [2] (10 μM), the Aβ40 levels entry is recorded as “significant decrease in Aβ40 levels”.

With `CC(=O)SCCCCCCCOc1ccc2c(c1)N(C)C(C(C)C)C(=O)NC(CO)C2` (stereo not drawn) [Compound 13, Thioacetic acid S-[7-(5-hydroxymethyl-2-isopropyl-1-methyl-3-oxo-1,2,3,4,5,6-hexahydrobenzo[e][1,4]diazocin-9-yloxy)heptyl] ester], the Ki on mouse PKCα was 4.5 ± 0.4 nM. Besides, in assay [1] (10 μm), the sAPPα levels entry was “increase in sAPPα levels”. In addition, in assay [2] (1-10 μM), the Aβ40 levels result is “significant decrease in Aβ40 levels”.
